# Data published in ChEMBL document CHEMBL3862012, “Methylene versus carbonyl bridge in the structure of new tubulin polymerization inhibitors with tricyclic A-rings” (Bioorg Med Chem, 2016).
# How the values were obtained:
# Assay type in all cases: functional
# [1] = Cytotoxicity against human MDA-MB-468 cells assessed as growth inhibition at 10 uM after 48 hrs by SRB assay relative to control; conditions: MDA-MB-468, 48 h, read-out: GI
# [2] = Cytotoxicity against human M14 cells assessed as growth inhibition at 10 uM after 48 hrs by SRB assay relative to control; conditions: M14, 48 h, read-out: GI
# [3] = Cytotoxicity against human SR cells assessed as growth inhibition at 10 uM after 48 hrs by SRB assay relative to control; conditions: read-out: GI
# [4] = Cytotoxicity against human NCI-ADR-RES cells assessed as growth inhibition at 10 uM after 48 hrs by SRB assay relative to control; conditions: read-out: GI
# [5] = Cytotoxicity against human SF268 cells assessed as growth inhibition at 10 uM after 48 hrs by SRB assay relative to control; conditions: SF-268, 48 h, read-out: GI
# [6] = Cytotoxicity against human PC3 cells assessed as growth inhibition at 10 uM after 48 hrs by SRB assay relative to control; conditions: PC-3, 48 h, read-out: GI
# [7] = Cytotoxicity against human ACHN cells assessed as growth inhibition at 10 uM after 48 hrs by SRB assay relative to control; conditions: read-out: GI
# [8] = Cytotoxicity against human UO31 cells assessed as growth inhibition at 10 uM after 48 hrs by SRB assay relative to control; conditions: UO-31, 48 h, read-out: GI
# [9] = Cytotoxicity against human Caki1 cells assessed as growth inhibition at 10 uM after 48 hrs by SRB assay relative to control; conditions: CAKI-1, 48 h, read-out: GI
# [10] = Cytotoxicity against human KM12 cells assessed as growth inhibition at 10 uM after 48 hrs by SRB assay relative to control; conditions: KM12, 48 h, read-out: GI
# [11] = Cytotoxicity against human U251 cells assessed as growth inhibition at 10 uM after 48 hrs by SRB assay relative to control; conditions: U-251, 48 h, read-out: GI
# [12] = Cytotoxicity against human CCRF-CEM cells assessed as growth inhibition at 10 uM after 48 hrs by SRB assay relative to control; conditions: read-out: GI
# [13] = Cytotoxicity against human MALME-3M cells assessed as growth inhibition at 10 uM after 48 hrs by SRB assay relative to control; conditions: read-out: GI
# [14] = Cytotoxicity against human 786-0 cells assessed as growth inhibition at 10 uM after 48 hrs by SRB assay relative to control; conditions: 786-0, 48 h, read-out: GI
# [15] = Cytotoxicity against human SKOV3 cells assessed as growth inhibition at 10 uM after 48 hrs by SRB assay relative to control; conditions: SK-OV-3, 48 h, read-out: GI
# [16] = Cytotoxicity against human COLO205 cells assessed as growth inhibition at 10 uM after 48 hrs by SRB assay relative to control; conditions: COLO 205, 48 h, read-out: GI
# [17] = Cytotoxicity against human NCI-H226 cells assessed as growth inhibition at 10 uM after 48 hrs by SRB assay relative to control; conditions: NCI-H226, 48 h, read-out: GI
# [18] = Cytotoxicity against human HCT15 cells assessed as growth inhibition at 10 uM after 48 hrs by SRB assay relative to control; conditions: HCT-15, 48 h, read-out: GI
# [19] = Cytotoxicity against human LOXIMVI cells assessed as growth inhibition at 10 uM after 48 hrs by SRB assay relative to control; conditions: LOX IMVI, read-out: GI
# [20] = Cytotoxicity against human BT549 cells assessed as growth inhibition at 10 uM after 48 hrs by SRB assay relative to control; conditions: BT-549, 48 h, read-out: GI
# [21] = Cytotoxicity against human MDA-MB-231 cells assessed as growth inhibition at 10 uM after 48 hrs by SRB assay relative to control; conditions: MDA-MB-231, 48 h, read-out: GI
# [22] = Cytotoxicity against human OVCAR5 cells assessed as growth inhibition at 10 uM after 48 hrs by SRB assay relative to control; conditions: OVCAR-5, 48 h, read-out: GI
# [23] = Cytotoxicity against human TK10 cells assessed as growth inhibition at 10 uM after 48 hrs by SRB assay relative to control; conditions: TK-10, 48 h, read-out: GI
# [24] = Cytotoxicity against human NCI-H23 cells assessed as growth inhibition at 10 uM after 48 hrs by SRB assay relative to control; conditions: NCI-H23, 48 h, read-out: GI
# [25] = Cytotoxicity against human IGROV1 cells assessed as growth inhibition at 10 uM after 48 hrs by SRB assay relative to control; conditions: IGROV-1, 48 h, read-out: GI
# [26] = Cytotoxicity against human NCI-H322M cells assessed as growth inhibition at 10 uM after 48 hrs by SRB assay relative to control; conditions: read-out: GI
# [27] = Cytotoxicity against human HCT116 cells assessed as growth inhibition at 10 uM after 48 hrs by SRB assay relative to control; conditions: HCT-116, 48 h, read-out: GI
# [28] = Cytotoxicity against human HOP92 cells assessed as growth inhibition at 10 uM after 48 hrs by SRB assay relative to control; conditions: HOP-92, 48 h, read-out: GI
# [29] = Cytotoxicity against human T47D cells assessed as growth inhibition at 10 uM after 48 hrs by SRB assay relative to control; conditions: read-out: GI
# [30] = Cytotoxicity against human SW620 cells assessed as growth inhibition at 10 uM after 48 hrs by SRB assay relative to control; conditions: SW-620, 48 h, read-out: GI
# [31] = Cytotoxicity against human SF295 cells assessed as growth inhibition at 10 uM after 48 hrs by SRB assay relative to control; conditions: SF-295, 48 h, read-out: GI
# [32] = Cytotoxicity against human HT-29 cells assessed as growth inhibition at 10 uM after 48 hrs by SRB assay relative to control; conditions: HT-29, 48 h, read-out: GI
# [33] = Cytotoxicity against human NCI-H522 cells assessed as growth inhibition at 10 uM after 48 hrs by SRB assay relative to control; conditions: NCI-H522, 48 h, read-out: GI
# [34] = Cytotoxicity against human RPMI8226 cells assessed as growth inhibition at 10 uM after 48 hrs by SRB assay relative to control; conditions: RPMI-8226, 48 h, read-out: GI
# [35] = Cytotoxicity against human HL-60(TB) cells assessed as growth inhibition at 10 uM after 48 hrs by SRB assay relative to control; conditions: HL-60, 48 h, read-out: GI
# [36] = Cytotoxicity against human MCF7 cells assessed as growth inhibition at 10 uM after 48 hrs by SRB assay relative to control; conditions: MCF7, 48 h, read-out: GI
# [37] = Cytotoxicity against human DU145 cells assessed as growth inhibition at 10 uM after 48 hrs by SRB assay relative to control; conditions: DU-145, 48 h, read-out: GI
smiles,measurement,setting,value
COc1ccc(CN2c3ccccc3Sc3ccccc32)c(C(F)(F)F)c1,inhibition of growth at 10 µM,[1],81%
same,inhibition of growth at 10 µM,[2],92%
same,inhibition of growth at 10 µM,[3],88%
same,inhibition of growth at 10 µM,[4],77%
same,inhibition of growth at 10 µM,[5],44%
same,inhibition of growth at 10 µM,[6],73%
same,inhibition of growth at 10 µM,[7],51%
same,inhibition of growth at 10 µM,[8],54%
same,inhibition of growth at 10 µM,[9],67%
same,inhibition of growth at 10 µM,[10],80%
same,inhibition of growth at 10 µM,[11],79%
same,inhibition of growth at 10 µM,[12],90%
same,inhibition of growth at 10 µM,[13],7%
same,inhibition of growth at 10 µM,[14],58%
same,inhibition of growth at 10 µM,[15],82%
same,inhibition of growth at 10 µM,[16],100%
same,inhibition of growth at 10 µM,[17],42%
same,inhibition of growth at 10 µM,[18],63%
same,inhibition of growth at 10 µM,[19],45%
same,inhibition of growth at 10 µM,[20],47%
same,inhibition of growth at 10 µM,[21],59%
same,inhibition of growth at 10 µM,[22],35%
same,inhibition of growth at 10 µM,[23],34%
same,inhibition of growth at 10 µM,[24],56%
same,inhibition of growth at 10 µM,[25],57%
same,inhibition of growth at 10 µM,[26],51%
same,inhibition of growth at 10 µM,[27],92%
same,inhibition of growth at 10 µM,[28],61%
same,inhibition of growth at 10 µM,[29],74%
same,inhibition of growth at 10 µM,[30],74%
same,inhibition of growth at 10 µM,[31],98%
same,inhibition of growth at 10 µM,[32],98%
same,inhibition of growth at 10 µM,[33],100%
same,inhibition of growth at 10 µM,[34],71%
same,inhibition of growth at 10 µM,[35],76%
same,inhibition of growth at 10 µM,[36],76%
same,inhibition of growth at 10 µM,[37],79%
COc1ccc(CN2c3ccccc3Oc3ccccc32)cc1O,inhibition of growth at 10 µM,[1],93%
same,inhibition of growth at 10 µM,[2],82%
same,inhibition of growth at 10 µM,[3],83%
same,inhibition of growth at 10 µM,[4],75%
same,inhibition of growth at 10 µM,[5],43%
same,inhibition of growth at 10 µM,[6],69%
same,inhibition of growth at 10 µM,[7],64%
same,inhibition of growth at 10 µM,[8],68%
same,inhibition of growth at 10 µM,[9],61%
same,inhibition of growth at 10 µM,[10],79%
same,inhibition of growth at 10 µM,[11],76%
same,inhibition of growth at 10 µM,[12],88%
same,inhibition of growth at 10 µM,[13],55%
same,inhibition of growth at 10 µM,[14],57%
same,inhibition of growth at 10 µM,[15],69%
same,inhibition of growth at 10 µM,[16],9%
same,inhibition of growth at 10 µM,[17],6%
same,inhibition of growth at 10 µM,[18],72%
same,inhibition of growth at 10 µM,[19],61%
same,inhibition of growth at 10 µM,[20],60%
same,inhibition of growth at 10 µM,[21],43%
same,inhibition of growth at 10 µM,[22],9%
same,inhibition of growth at 10 µM,[23],36%
same,inhibition of growth at 10 µM,[24],66%
same,inhibition of growth at 10 µM,[25],55%
same,inhibition of growth at 10 µM,[26],44%
same,inhibition of growth at 10 µM,[27],86%
same,inhibition of growth at 10 µM,[28],67%
same,inhibition of growth at 10 µM,[29],69%
same,inhibition of growth at 10 µM,[30],73%
same,inhibition of growth at 10 µM,[31],86%
same,inhibition of growth at 10 µM,[32],17%
same,inhibition of growth at 10 µM,[33],100%
same,inhibition of growth at 10 µM,[34],86%
same,inhibition of growth at 10 µM,[35],84%
same,inhibition of growth at 10 µM,[36],73%
same,inhibition of growth at 10 µM,[37],63%
COc1ccc(CN2c3ccccc3Sc3ccccc32)cc1O,inhibition of growth at 10 µM,[1],91%
same,inhibition of growth at 10 µM,[2],86%
same,inhibition of growth at 10 µM,[3],84%
same,inhibition of growth at 10 µM,[4],82%
same,inhibition of growth at 10 µM,[5],54%
same,inhibition of growth at 10 µM,[6],74%
same,inhibition of growth at 10 µM,[7],58%
same,inhibition of growth at 10 µM,[8],76%
same,inhibition of growth at 10 µM,[9],64%
same,inhibition of growth at 10 µM,[10],82%
same,inhibition of growth at 10 µM,[11],82%
same,inhibition of growth at 10 µM,[12],92%
same,inhibition of growth at 10 µM,[13],28%
same,inhibition of growth at 10 µM,[14],57%
same,inhibition of growth at 10 µM,[15],71%
same,inhibition of growth at 10 µM,[16],100%
same,inhibition of growth at 10 µM,[17],29%
same,inhibition of growth at 10 µM,[18],67%
same,inhibition of growth at 10 µM,[19],57%
same,inhibition of growth at 10 µM,[20],45%
same,inhibition of growth at 10 µM,[21],59%
same,inhibition of growth at 10 µM,[22],14%
same,inhibition of growth at 10 µM,[23],42%
same,inhibition of growth at 10 µM,[24],63%
same,inhibition of growth at 10 µM,[25],70%
same,inhibition of growth at 10 µM,[26],67%
same,inhibition of growth at 10 µM,[27],87%
same,inhibition of growth at 10 µM,[28],50%
same,inhibition of growth at 10 µM,[29],73%
same,inhibition of growth at 10 µM,[30],69%
same,inhibition of growth at 10 µM,[31],96%
same,inhibition of growth at 10 µM,[32],91%
same,inhibition of growth at 10 µM,[33],100%
same,inhibition of growth at 10 µM,[34],76%
same,inhibition of growth at 10 µM,[35],79%
same,inhibition of growth at 10 µM,[36],74%
same,inhibition of growth at 10 µM,[37],82%
